Like-named read-outs stand apart in the source and are kept apart here.
Key:
[1] = PK of test compounds in beagle; format: in vivo, beagle dog; settings: for Cmax / Tmax / clearance / half-life / AUC(0-inf) / AUC(0-t) / Vd: dog, plasma; for AUC(0-inf): AUC in 0 hour to infinite time; for Vd: read-out: Vss; for F: absolute bioavailability
Experimental: The test compounds were administrated to beagle dog by gavage in dose of 2.5 mg/kg or 5 mg/kg, or by intravenous injection in dose of 1 mg/kg or 2 mg/kg. Blood sample was collected at 0.083, 0.25, 0.5, 1, 2, 4, 6, 8 and 24 hours from vein after administration into anticoagulation tubes with EDTA-K2. The test compounds were extracted from plasma samples and chromatographed on a tandem mass spectrometer. Quantitation was performed using multiple reaction monitoring (MRM). Pharmacokinetic parameters were calculated using WinNonlin 6.3 software with non compartment model.

[2] = Stability in liver microsome, mouse; format: in vitro ADME; settings: liver microsomes; mouse liver microsome 0.1 mg/mL, compound 1 μM, NADPH 2 mM
Experimental: (§1) Then two parallel samples were prepared. After a 10 minutes preincubation at 37° C., 15 μL of NADPH solution (8 mM) was added according to the point-in-time. The final concentration of the text compound was 1 μM, the concentration of liver microsome was 0.1 mg/mL, the final concentration of NADPH was 2 mM. The incubations were last for 0, 15, 30, 60 min respectively, and then 150 μL of acetonitrile (include interior label) was added to the mixture system. After dilution with acetonitrile, the samples were centrifuged for 5 minutes in 4000 rpm. The supernatant liquid was collected for LC-MS/MS analysis.

[3] = Stability in liver microsome, human; format: in vitro ADME; settings: liver microsomes; human liver microsome 0.1 mg/mL, compound 1 μM, NADPH 2 mM
Experimental: as §1

[4] = system: HBV; test: In-vitro anti-HBV activity in stable HBV-producing cell line (HepG2.2.15), HBV DNA by qPCR; format: cell-based; settings: Hepatitis B virus
Experimental: HBV DNA contents in cell culture fluid were detected by the qPCR-based assay and 50% effective concentration (EC50) values of the compounds against HBV were calculated. Specific procedures are as follows:
HepG2.2.15 cells were seeded into each well of 96-well plates, 40,000 cells per well. Cells were treated with cell culture medium containing compounds with different concentrations for 24 hours after cell seeding. The final concentration of each compound was 16.4 μM in each well and each compound was diluted to desired concentration using 3-fold gradient dilution protocol, 9 diluted points in duplicate. The culture mediums containing the compounds were refreshed on day 4 post cell seeding. Culture media were collected from the HepG2.2.15 plates on day 7 post cell seeding followed by HBV DNA extraction.
HBV DNA extraction: The HBV DNA extraction was performed using QIAamp 96 DNA Blood Kit (QIAGEN 51161).
PCR for quantification: PCR mix was prepared according to PCR system. PCR mix was dispensed to 96-well optical reaction plates (special for quantification). The standard diluted proportionally was added. Then the sample was added; The plates were sealed with optical adhesive film; PCR system was performed according to programs.
Percentage of HBV inhibition of DNA replication by compound was calculated using the following equation: % Inh.=[1-HBV DNA quantity of sample/HBV DNA quantity of DMSO control]×100.
Calculating EC50 value of compounds to HBV replication: the EC50 values were calculated based on “four-parameter logistic equation” and using GraphPad Prism 5 analysis software.

[5] = Stability in liver microsome, dog; format: in vitro ADME; settings: liver microsomes; dog liver microsome 0.1 mg/mL, compound 1 μM, NADPH 2 mM
Experimental: as §1

[6] = Stability in liver microsome, monkey; format: in vitro ADME; settings: liver microsomes; monkey liver microsome 0.1 mg/mL, compound 1 μM, NADPH 2 mM
Experimental: as §1

[7] = iv, 1 mg/kg, iv, 1 mg/kg, AUC in 0-24 hours, read-out: AUClast
[8] = 168 h, HepG2.2.15 cells, HBV DNA in culture fluid, day 7, top concentration 16.4 μM
[9] = po, 2.5 mg/kg, po, 2.5 mg/kg value multiplied by 2, read-out: AUClast ×2 (calculated by dosage)
[10] = po, 2.5 mg/kg, po, 2.5 mg/kg, AUC in 0-24 hours, read-out: AUClast
[11] = HepG2.2.15, isomers of compound of formular (II)

| Structure (SMILES) | Cmax ([1]; iv, 1 mg/kg) [ng/mL] | Tmax ([1]; iv, 1 mg/kg) [h] | clearance ([1]; iv, 1 mg/kg) [mL/min/kg] | half-life ([1]; iv, 1 mg/kg) [h] | AUC(0-inf) ([1]; iv, 1 mg/kg) [ng·h/mL] | AUC(0-t) [1, 7] [ng·h/mL] | Vd ([1]; iv, 1 mg/kg) [L/kg] | CLint scaled at 1 μM [2] [mL/min/kg] | half-life at 1 μM [2] [h] | CLint scaled at 1 μM [3] [mL/min/kg] | half-life at 1 μM [3] [h] | EC50 [4, 8] [nM] | CLint scaled at 1 μM [5] [mL/min/kg] | half-life at 1 μM [5] [h] | CLint scaled at 1 μM [6] [mL/min/kg] | half-life at 1 μM [6] [h] | Cmax ([1]; po, 2.5 mg/kg) [ng/mL] | Tmax ([1]; po, 2.5 mg/kg) [h] | half-life ([1]; po, 2.5 mg/kg) [h] | AUC(0-inf) ([1]; po, 2.5 mg/kg) [ng·h/mL] | also measured |
| --- | --- | --- | --- | --- | --- | --- | --- | --- | --- | --- | --- | --- | --- | --- | --- | --- | --- | --- | --- | --- | --- |
| CCOC(=O)C1=C(CN2CCO[C@H](CCC(=O)O)C2)NC(c2nccs2)=N[C@H]1c1ccc(F)cc1Br [Example 2, 3-((R)-4-(((R)-6-(2-Bromo-4-fluorophenyl)-5-(ethoxycarbonyl)-2-(thiazol-2-yl)-3,6-dihydropyrimidin-4-yl)methyl)morpholin-2-yl)propanoic acid] | 2050 | 0.083 | 1.93 | 5.71 | 8700 | 8270 | 0.756 | 385 | 0.236 | 17.5 | 1.66 | 35 | 14.3 | 4.02 | 107 | 0.314 | – | – | – | – | Cmax ([1]; po, 5 mg/kg): 6330 ng/mL; Tmax ([1]; po, 5 mg/kg): 1.33 h; half-life ([1]; po, 5 mg/kg): 5.1 h; AUC(0-inf) ([1]; po, 5 mg/kg): 49600 ng·h/mL; AUC(0-t) ([1]; po, 5 mg/kg, po, 5 mg/kg, AUC in 0-24 hours, read-out: AUClast): 47900 ng·h/mL; F ([1]; po, 5 mg/kg): 114.1% |
| CCOC(=O)C1=C(CN2CCO[C@H](CCC(=O)O)C2)NC(c2nccs2)=N[C@H]1c1ccc(F)cc1Cl [Example 9, 3-((R)-4-(((R)-6-(2-Chloro-4-fluorophenyl)-5-(ethoxycarbonyl)-2-(thiazol-2-yl)-3,6-dihydropyrimidin-4-yl)methyl)morpholin-2-yl)propanoic acid] | 2570 | 0.083 | 1.51 | 6.59 | 11300 | 10600 | 0.63 | 281 | 0.324 | 11.4 | 2.53 | 48 | 19.4 | 2.96 | 75.6 | 0.447 | 4360 | 0.5 | 4.62 | 24800 | AUC(0-t) [1, 9]: 48600 ng·h/mL; AUC(0-t) [1, 10]: 24300 ng·h/mL; F ([1]; po, 2.5 mg/kg): 87.91%; EC50 [4, 11]: 48 nM |
| COC(=O)C1=C(CN2CCO[C@H](CCC(=O)O)C2)NC(c2nccs2)=N[C@H]1c1ccc(F)cc1Cl [Example 10, 3-((R)-4-(((R)-6-(2-Chloro-4-fluorophenyl)-5-(methoxycarbonyl)-2-(thiazol-2-yl)-3,6-dihydropyrimidin-4-yl)methyl)morpholin-2-yl)propanoic acid] | 2430 | 0.083 | 1.74 | 5.16 | 9710 | 9400 | 0.62 | 57.7 | 1.58 | 3.72 | 7.78 | 45 | 6.13 | 9.39 | 15.4 | 2.19 | 4560 | 0.833 | 4.57 | 28000 | AUC(0-t) [1, 9]: 54000 ng·h/mL; AUC(0-t) [1, 10]: 27400 ng·h/mL; F ([1]; po, 2.5 mg/kg): 115% |
| COC(=O)C1=C(CN2CCO[C@H](CCC(=O)O)C2)NC(c2nccs2)=N[C@H]1c1ccc(F)cc1Br [Example 11, 3-((R)-4-(((R)-6-(2-Bromo-4-fluorophenyl)-5-(methoxycarbonyl)-2-(thiazol-2-yl)-3,6-dihydropyrimidin-4-yl)methyl)morpholin-2-yl)propanoic acid] | 3400 | 0.139 | 1.59 | 4.99 | 10900 | 10500 | 0.545 | 86.3 | 1.05 | 6.93 | 4.18 | 35 | 10.1 | 5.72 | 14.4 | 2.34 | 4310 | 0.75 | 4.92 | 24400 | AUC(0-t) [1, 9]: 47400 ng·h/mL; AUC(0-t) [1, 10]: 23700 ng·h/mL; F ([1]; po, 2.5 mg/kg): 89.66% |
| CCOC(=O)C1=C(CN2CCOC[C@@H]2CCC(=O)O)NC(c2nccs2)=N[C@@H]1c1ccc(F)cc1Br [Example 48, 3-((S)-4-(((S)-6-(2-Bromo-4-fluorophenyl)-5-(ethoxycarbonyl)-2-(thiazol-2-yl)-3,6-dihydropyrimidin-4-yl)methyl)morpholin-3-yl)propanoic acid] | – | – | – | – | – | – | – | – | – | – | – | > 10300 | – | – | – | – | – | – | – | – | – |
| COC(=O)C1=C(CN2CCOC[C@H]2CCC(=O)O)NC(c2nccs2)=N[C@@H]1c1ccc(F)cc1Br [Example 49, 3-((R)-4-(((S)-6-(2-Bromo-4-fluorophenyl)-5-(methoxycarbonyl)-2-(thiazol-2-yl)-3,6-dihydropyrimidin-4-yl)methyl)morpholin-3-yl)propanoic acid] | – | – | – | – | – | – | – | – | – | – | – | > 16400 | – | – | – | – | – | – | – | – | – |
| COC(=O)C1=C(CN2CCOC[C@@H]2CCC(=O)O)NC(c2nccs2)=N[C@@H]1c1ccc(F)cc1Br [Example 50, 3-((S)-4-(((S)-6-(2-Bromo-4-fluorophenyl)-5-(methoxycarbonyl)-2-(thiazol-2-yl)-3,6-dihydropyrimidin-4-yl)methyl)morpholin-3-yl)propanoic acid] | – | – | – | – | – | – | – | – | – | – | – | > 10900 | – | – | – | – | – | – | – | – | – |
| CCOC(=O)C1=C(CN2CCO[C@H](CCC(=O)O)C2)NC(c2nccs2)=N[C@@H]1c1ccc(F)cc1Cl [Example M3] | – | – | – | – | – | – | – | – | – | – | – | – | – | – | – | – | – | – | – | – | EC50 [4, 11]: > 16400 nM |
| CCOC(=O)C1=C(CN2CCO[C@@H](CCC(=O)O)C2)NC(c2nccs2)=N[C@@H]1c1ccc(F)cc1Cl [Example M4] | – | – | – | – | – | – | – | – | – | – | – | – | – | – | – | – | – | – | – | – | EC50 [4, 11]: > 16400 nM |

From US9771358B2, “Dihydropyrimidine compounds and their application in pharmaceuticals” (SUNSHINE LAKE PHARMA CO., LTD., priority 2014, dated 2017)
